These results are taken from patent US20250223301A1, “KINASE INHIBITORS, PREPARATION METHODS AND USES THEREOF” (InventisBio Co., Ltd., priority 2022, published 2025).

In one assay the test system is PBMC. Put plainly: Human PBMC IL-2 assay. Type of assay: cell-based. The note with it: anti-CD3/CD28 stimulation overnight, IL-2 level. On the procedure: PBMC (frozen) obtained from health donor were thawed in RPMI-1640 medium with 10% FBS and incubated for 4 h at 37° C. In a 96-well plate, −200,000 PBMC cells in 160 uL were added to each assay well. Ten microliter compound solution (10 uM to 0.6 nM, 8 points with 4-fold dilution) were added to cells in each well and incubated for 60 minutes at 37° C. Then 30 uL anti-CD3/CD28 antibody (Catalog #10991, Stemcell) were added to cells and incubated overnight at 37° C. After the incubation, 16 uL supernatants were transferred into a new 384-well white assay plate for cytokine analysis. IL-2 level was quantified using Human IL-2 kit (Catalog #62HIL02PEG, Cisbio) as described in the manufacturer manual.
(§1) X is log of compound concentration, Y is the IL-2 concentration, increasing as X increases.

The test system of another assay is Jurkat cells. Put plainly: Jurkat IL-2 assay. The assay is classed as cell-based. The note with it: Homo sapiens, anti-CD3/CD28 stimulation overnight, IL-2 level. How it is done:
Jurkat cells (ATCC) were cultured in RPMI-1640 medium supplemented with 10% FBS. In a 96-well plate, −250,000 cells in 130 uL were added to each assay well. Ten microliter compound solution (5 uM to 2.3 nM, 8 points with 3-fold dilution) were added to cells in each well and incubated for 60 minutes at 37° C. Then 10 uL anti-CD3/CD28 antibody (Catalog #10991, Stemcell) were added and incubated overnight at 37° C. After the incubation, 16 uL supernatants were transferred into a new 384-well white assay plate for cytokine analysis. IL-2 was quantified using Human IL-2 kit (Catalog #62HIL02PEG, Cisbio) as described in the manufacturer manual.
as §1

For orientation: EC50 means the concentration that produces a half-maximal response. Read a low EC50 as a more potent agent. Take `CC[C@H]1CN([C@H](c2ccc(SC(F)(F)F)cc2)C2CC2)[C@H](CC)CN1c1nc2nncn2c2ccc(C#N)nc12` (stereo in doubt) [Compound 168]: the values for the EC50 with PBMC and in the assay with Jurkat cells were 32 nM and 42 nM, respectively.

On to `CC[C@@H]1CN2c3c(c(=O)n(C)c4ccc(C#N)nc34)OC[C@@H]2CN1[C@@H](CC)c1c(F)ccc(F)c1F` (stereo in doubt) [Compound 170], for which the concentration for a half-maximal effect (EC50) with PBMC turned out to be 186 nM; with Jurkat cells, 246 nM.

`CC[C@@H]1CN2c3c(c(=O)n(C)c4ccc(C#N)nc34)OC[C@@H]2CN1[C@@H](CC)c1ccc(F)cc1F` (stereo in doubt) [Compound 174]: the results for the EC50 in the assay on PBMC and in the assay on Jurkat cells were 25 nM and 13 nM, respectively.

Regarding `CC[C@@H](c1ccc(C(F)(F)F)cc1)N1C[C@H]2COc3c(c4nc(C#N)ccc4n(C)c3=O)N2C[C@H]1C` (stereo in doubt) [Compound 179], the EC50 in the assay on PBMC worked out at 58 nM; in the assay with Jurkat cells, 29 nM.

With `CC[C@@H]1CN2c3c(c(=O)n(C)c4ccc(C#N)nc34)OC[C@@H]2CN1[C@@H](CC)c1ccc(C(F)(F)F)cn1` (stereo in doubt) [Compound 186], the concentration for a half-maximal effect (EC50) in the assay with PBMC was found to be 23 nM; in the assay with Jurkat cells it was 13 nM.

On to `CC[C@H]1CN([C@@H](CC)c2ccc(F)cc2F)[C@H](CC)CN1c1nc2nncn2c2ccc(C#N)nc12` (stereo in doubt) [Compound 194], for which the half-maximal effective concentration (EC50) in the assay with PBMC amounted to 79 nM; with Jurkat cells, 104 nM.

For `CC[C@H]1CN([C@H](CC)c2ccc(F)cc2F)[C@H](CC)CN1c1nc2nncn2c2ccc(C#N)nc12` (stereo in doubt) [Compound 195], the values for the EC50 in the assay on PBMC and in the assay on Jurkat cells were 2200 nM and 1110 nM, respectively.

On to `CC[C@@H]1CN2c3c(c(=O)n(C)c4ccc(C#N)nc34)OC[C@@H]2CN1[C@H](CC)c1ccc(F)c(Cl)c1` (stereo in doubt) [Compound 196], for which the figures for the half-maximal effective concentration (EC50) with PBMC and in the assay on Jurkat cells were 846 nM and 1280 nM, respectively.

For the compound `CC[C@H]1CN([C@@H](CC)c2ccc(F)c(F)c2)[C@H](CC)CN1c1nc2nncn2c2ccc(C#N)nc12` (stereo in doubt) [Compound 200], the concentration for a half-maximal effect (EC50) in the assay on PBMC stood at 42 nM; in the assay on Jurkat cells it was 86 nM.

With `CC[C@H]1CN([C@H](CC)c2ccc(F)c(F)c2)[C@H](CC)CN1c1nc2nncn2c2ccc(C#N)nc12` (stereo in doubt) [Compound 201], the EC50 with PBMC was 520 nM; in the assay with Jurkat cells it was 822 nM.

As to `CC[C@H]1CN([C@H](c2ccc(C(F)(F)F)cc2)C(C)C)[C@H](CC)CN1c1nc2nncn2c2ccc(C#N)nc12` (stereo in doubt) [Compound 204], the values for the concentration for a half-maximal effect (EC50) in the assay on PBMC and in the assay with Jurkat cells were 107 nM and 202 nM, respectively.

`CC[C@@H]1CN2c3c(c(=O)n(C)c4ccc(C#N)nc34)OC[C@@H]2CN1[C@@H](CC)c1ccc(C(F)(F)F)cc1Cl` (stereo in doubt) [Compound 207]: the 50% effective concentration (EC50) with PBMC came out at 284 nM; with Jurkat cells, 150 nM.

Take `CC[C@H]1CN([C@H](CC)c2c(Cl)cccc2Cl)[C@H](CC)CN1c1nc2nncn2c2ccc(C#N)nc12` (stereo in doubt) [Compound 209]: the EC50 with PBMC was determined as 1380 nM; in the assay on Jurkat cells it was 1010 nM.

For the compound `CC[C@@H]1CN2c3c(c(=O)n(C)c4ccc(C#N)nc34)OC[C@@H]2CN1[C@@H](CC)c1ccc(OC(F)(F)F)cc1` (stereo in doubt) [Compound 212], the values for the EC50 with PBMC and with Jurkat cells were 39 nM and 11 nM, respectively.

For the compound `C[C@@H]1CN2c3c(c(=O)n(C)c4ccc(C#N)nc34)OC[C@@H]2CN1[C@H](C)c1ccc(C(F)(F)F)cc1` (stereo in doubt) [Compound 222], the results for the EC50 with PBMC and with Jurkat cells were 154 nM and 144 nM, respectively.

With `CC[C@@H]1CN2c3c(c(=O)n(CC)c4ccc(C#N)nc34)OC[C@@H]2CN1[C@@H](CC)c1ccc(C(F)(F)F)cc1` (stereo in doubt) [Compound 228], the EC50 was 227 nM in the assay with PBMC and 87 nM in the assay on Jurkat cells.

Consider `CC[C@@H]1CN2c3c(c(=O)n(C)c4ccc(C#N)nc34)OC[C@@H]2CN1[C@@H](CC)c1ccc(OC)cc1F` (stereo in doubt) [Compound 232], for which the EC50 in the assay on PBMC was found to be 19 nM; in the assay with Jurkat cells, 47 nM.

On to `CC[C@@H]1CN2c3c(c(=O)n(C)c4ccc(C#N)nc34)OC[C@@H]2CN1[C@@H](CC)c1ccc(C(F)(F)F)cc1C` (stereo in doubt) [Compound 233], for which the EC50 in the assay with PBMC was 361 nM; with Jurkat cells, 287 nM.

Take `CC[C@@H]1CN2c3c(c(=O)n(C)c4ccc(C#N)nc34)OC[C@@H]2CN1[C@H](CO)c1ccc(C(F)(F)F)cc1` (stereo in doubt) [Compound 236]: the concentration giving a half-maximal response (EC50) came to 583 nM in the assay with PBMC and 98 nM in the assay on Jurkat cells.

Turning to `CC[C@@H](c1ccc(F)c(Cl)c1)N1C[C@H]2COc3c(c4nc(C#N)ccc4n(C)c3=O)N2C[C@H]1C` (stereo in doubt) [Compound 238], the EC50 in the assay on PBMC turned out to be 78 nM; with Jurkat cells, 189 nM.

Take `CC[C@@H]1CN2c3c(c(=O)n(C)c4ccc(C#N)nc34)OC[C@@H]2CN1[C@H](CC)c1c(Cl)cccc1Cl` (stereo in doubt) [Compound 239]: the concentration giving a half-maximal response (EC50) was 3420 nM with PBMC and 687 nM with Jurkat cells.

As for `CC[C@@H]1CN2c3c(c(=O)n(C)c4ccc(C#N)nc34)OC[C@@H]2CN1[C@@H](CC)c1c(Cl)cccc1Cl` (stereo in doubt) [Compound 240], the EC50 amounted to 109 nM in the assay on PBMC and 242 nM in the assay with Jurkat cells.

`CC[C@@H]1CN2c3c(c(=O)n(C)c4ccc(C#N)nc34)OC[C@@H]2CN1[C@H](CC)c1ccc(Cl)cc1` (stereo in doubt) [Compound 243]: the results for the EC50 in the assay on PBMC and in the assay on Jurkat cells were 212 nM and 473 nM, respectively.

With `CC[C@@H]1CN2c3c(c(=O)n(C)c4ccc(C#N)nc34)OC[C@@H]2CN1[C@@H](CC)c1ccc(Cl)cc1` (stereo in doubt) [Compound 244], the EC50 worked out at 11 nM with PBMC and 63 nM with Jurkat cells.

For `CC[C@@H]1CN2c3c(c(=O)n(C)c4ccc(C#N)nc34)OC[C@@H]2CN1[C@H](CC)c1ccc(C(F)(F)F)c(Cl)c1` (stereo in doubt) [Compound 245], the EC50 in the assay with PBMC turned out to be 314 nM; with Jurkat cells, 189 nM.

As for `C[C@@H]1CN2c3c(c(=O)n(C)c4ccc(C#N)nc34)OC[C@@H]2CN1[C@@H](C)c1ccc(Cl)c(Cl)c1` (stereo in doubt) [Compound 257], the values for the half-maximal effective concentration (EC50) with PBMC and in the assay with Jurkat cells were 119 nM and 132 nM, respectively.

On to `C[C@@H]1CN2c3c(c(=O)n(C)c4ccc(C#N)nc34)OC[C@@H]2CN1[C@H](C)c1ccc(Cl)c(Cl)c1` (stereo in doubt) [Compound 258], for which the results for the EC50 in the assay on PBMC and with Jurkat cells were 1100 nM and 758 nM, respectively.

For `C[C@@H]1CN2c3c(c(=O)n(C)c4ccc(C#N)nc34)OC[C@@H]2CN1[C@H](C)c1ccc(F)c(Cl)c1` (stereo in doubt) [Compound 259], the results for the EC50 in the assay on PBMC and in the assay on Jurkat cells were 1880 nM and 624 nM, respectively.

With `C[C@@H]1CN2c3c(c(=O)n(C)c4ccc(C#N)nc34)OC[C@@H]2CN1[C@@H](C)c1ccc(F)c(Cl)c1` (stereo in doubt) [Compound 260], the EC50 with PBMC stood at 89 nM; in the assay with Jurkat cells it was 69 nM.

For the compound `C[C@@H]1CN2c3c(c(=O)n(C)c4ccc(C#N)nc34)OC[C@@H]2CN1[C@H](C)c1ccc(Cl)cc1` (stereo in doubt) [Compound 270], the values for the EC50 in the assay on PBMC and in the assay with Jurkat cells were 616 nM and 506 nM, respectively.

For the compound `C[C@@H]1CN2c3c(c(=O)n(C)c4ccc(C#N)nc34)OC[C@@H]2CN1[C@@H](C)c1ccc(Cl)cc1` (stereo in doubt) [Compound 271], the EC50 in the assay on PBMC was 57 nM; in the assay on Jurkat cells, 79 nM.

Consider `C[C@@H]1CN2c3c(c(=O)n(C)c4ccc(C#N)nc34)OC[C@@H]2CN1[C@@H](C)c1ccc(Cl)cc1F` (stereo in doubt) [Compound 275], for which the half-maximal effective concentration (EC50) was 23 nM with PBMC and 51 nM in the assay with Jurkat cells.

Regarding `CC[C@@H](c1ccc(Cl)c(F)c1)N1C[C@H]2COc3c(c4nc(C#N)ccc4n(C)c3=O)N2C[C@H]1C` (stereo in doubt) [Compound 281], the concentration for a half-maximal effect (EC50) was 49 nM in the assay on PBMC and 118 nM in the assay on Jurkat cells.

Regarding `CC[C@@H]1CN2c3c(c(=O)n(C)c4ccc(C#N)nc34)OC[C@@H]2CN1[C@@H](CC)c1ccc(C(F)F)cc1` (stereo in doubt) [Compound 291], the 50% effective concentration (EC50) in the assay on PBMC stood at 11 nM; with Jurkat cells, 10 nM.

Regarding `CC[C@@H]1CN2c3c(c(=O)n(C)c4ccc(C#N)nc34)OC[C@@H]2CN1[C@@H](CC)c1ccc(Cl)cc1F` (stereo in doubt) [Compound 295], the values for the EC50 in the assay with PBMC and in the assay on Jurkat cells were 10 nM and 8 nM, respectively.

With `CC[C@@H]1CN2c3c(c(=O)n(C)c4ccc(C#N)nc34)OC[C@@H]2CN1[C@H](CC)c1ccc(Cl)c(F)c1` (stereo in doubt) [Compound 296], the EC50 in the assay on PBMC was 68 nM; with Jurkat cells it was 91 nM.

In the case of `CC[C@@H]1CN2c3c(c(=O)n(C)c4ccc(C#N)nc34)OC[C@@H]2CN1[C@@H](CC)c1ccc(Cl)c(F)c1` (stereo in doubt) [Compound 297], the EC50 in the assay on PBMC is 12 nM; with Jurkat cells, 34 nM.

Regarding `C[C@@H]1CN2c3c(c(=O)n(C)c4ccc(C#N)nc34)OC[C@@H]2CN1[C@H](C)c1ccc(C(C)(F)F)cc1` (stereo in doubt) [Compound 303], the EC50 in the assay with PBMC turned out to be 105 nM; in the assay on Jurkat cells, 153 nM.
